Measured values from patent US20160120889A1, “LIFESPAN EXTENDING AGENT” (priority 2011, published 2016).

Experiments:
[1] = test system: SOD gene (Mn-SOD sod-3, Cu/Zn-SOD) in mev-1; experiment: SOD mRNA gene expression in mev-1 (real time quantitative RT-PCR); type: in vivo, Caenorhabditis elegans
Experimental: (§1) The wild-type N2 and the oxygen sensitive mutant mev-1 of the nematode Caenorhabditis elegans were cultured in liquid medium (10 mL) containing 0.5% (w/v) D-psicose. The medium was dispensed onto plastic petri dishes having a diameter of 10 cm, and approximately 1,000 nematodes were placed in each petri dish. The nematodes were cultured in the same manner as in Example 1 except for these differences, and the samples were collected on day 6 from the start of the culturing. FIG. 5 represents the results of the comparison of SOD mRNA gene expression levels. For comparison, the RNA gene levels of mitochondria Mn-SOD and cytosol Cu/Zn-SOD were measured.

[2] = test system: wild-type N2 strain of the nematode Caenorhabditis elegans; experiment: Nematode survival rate and average lifespan, wild-type N2; type: in vivo
Experimental: The wild-type N2 strain of the nematode Caenorhabditis elegans was used.
(§2) Complete S liquid medium (Sulston, J. E. and Brenner, S. (1974) Genetics 77, 95-104) was used for the culturing of the nematode. D-psicose or D-allose was added to the medium in 0.25% (14 mM) and 0.5% (28 mM). The Escherichia coli (E. coli) OP50 strain was added in 30 mg (wet weight/mL) to feed the worms. To exclude the effects of the germ cells on lifespan, the cell division inhibitor 2′-deoxy-5-fluorouridine (40 μM) was added.
(§3) Young worms, 4 days of age, were used for the measurements of survival rate and average lifespan. The prepared liquid medium was dispensed onto ten plastic petri dishes having a diameter of 3.5 cm (2 mL each). Ten nematodes were transferred to each petri dish (a total of 100 individuals), and cultured at 20° C. The samples were inoculated into a new medium every day until day 3, and every 2 to 3 days thereafter. Observations were made at the time of the inoculation, and the number of survived individuals was recorded.
(§4) The wild-type N2 strain of the nematode Caenorhabditis elegans was cultured, and lifespan was measured in the same manner as in Example 1, except that the D-psicose was used in 0.5% (w/v). […] The average lifespan with 0.5% D-psicose was 27 days, longer than the 23-day lifespan of the D-psicose-free control.

SOD activity in N2 = experiment: SOD activity in lysate of N2; type: in vivo, Caenorhabditis elegans; conditions: N2, 0.5% (w/v)
Experimental: as §1
(§5) The wild-type N2 and the oxygen sensitive mutant mev-1 of the nematode Caenorhabditis elegans were grown in the same manner as in Example 4. The samples were collected on day 7 from the start of the culturing, and the SOD activity in the lysate was measured.

[3] = test system: SOD gene (mitochondria Mn-SOD, cytosol Cu/Zn-SOD) in N2; experiment: SOD mRNA gene expression in N2 (real time quantitative RT-PCR); type: in vivo, Caenorhabditis elegans; conditions: N2, 0.5% (w/v), day 6, FIG. 5
Experimental: as §1

SOD activity in mev-1 = experiment: SOD activity in lysate of mev-1; type: in vivo, Caenorhabditis elegans; conditions: mev-1, 0.5% (w/v)
Experimental: as §1, §5

catalase activity in N2 = experiment: Catalase activity in lysate of N2; type: in vivo, Caenorhabditis elegans; conditions: N2, 0.5% (w/v), day 7, FIG. 8
Experimental: as §1
The wild-type N2 of the nematode Caenorhabditis elegans was grown in the same manner as in Example 4. The samples were collected on day 7 from the start of the culturing, and the catalase activity in the lysate was measured.

[4] = test system: oxygen sensitive mutant mev-1 of the nematode Caenorhabditis elegans; experiment: Nematode average lifespan, oxygen sensitive mutant mev-1; type: in vivo; conditions: mev-1, 0.25%, Example 3; control 12 days
Experimental: as §2, §3
as §4, with “oxygen sensitive mutant mev-1” for “wild-type N2 strain”, “0.25%.” for “0.5% (w/v).”, “0.25%” for “0.5%”, “16” for “27”, “12-day” for “23-day”

[5] = test system: catalase genes ctl-1, ctl-2 in N2; experiment: Catalase mRNA gene expression in N2; type: in vivo, Caenorhabditis elegans; conditions: N2, 0.5% (w/v), day 6
Experimental: as §1
The wild-type N2 and the oxygen sensitive mutant mev-1 of the nematode Caenorhabditis elegans were cultured in the same manner as in Example 4. The samples were collected on day 6 from the start of the culturing, and the catalase mRNA gene expression levels were compared. For comparison, the RNA gene levels of cytosol ctl-1 and peroxisome CTL-2 were measured.

SMILES	SOD mRNA gene expression level ([1]; mev-1, 0.5% (w/v), day 6, FIG. 5)	increase in expression level of Mn-SOD (sod-3) gene ([1]; mev-1, real time quantitative RT-PCR, 0.5% (w/v), day 6) [fold]	average lifespan ([2]; N2, 0.25% (14 mM) in medium, 20° C., Example 1, control 15.8 days) [days]	increase in average lifespan vs control ([2]; N2, 0.25% in medium, Example 1) [%]	lifespan extension ([2]; N2, 0.5% (w/v)) [%]	average lifespan ([2]; N2, 0.5% (w/v), Example 2, control 23 days) [days]	increase in SOD enzyme activity (SOD activity in N2; day 7) [fold]	SOD activity in the lysate (SOD activity in N2; day 7, FIG. 6)	SOD mRNA gene expression level [3]	increase in SOD enzyme activity (SOD activity in mev-1; day 7) [fold]	SOD activity in the lysate (SOD activity in mev-1; day 7, FIG. 6)	catalase activity in the lysate (catalase activity in N2)	average lifespan [4] [days]	increase in gene expression levels of cytoplasm-localized catalase and peroxisome catalases (ctl-1, ctl-2) [5] [fold]	average lifespan ([2]; N2, 0.5% (28 mM) in medium, 20° C., Example 1, control 12.5 days) [days]	increase in average lifespan vs control ([2]; N2, 0.5% in medium, Example 1) [%]
O=C(CO)[C@H](O)[C@H](O)[C@H](O)CO [D-psicose]	increased expression	1.7	18.9	20	17	27	1.5	increased SOD activity	increased expression	1.3	increased SOD activity	increased catalase activity	16	1.5	–	–
O=C[C@H](O)[C@H](O)[C@H](O)[C@H](O)CO [D-allose]	–	–	–	–	–	–	–	–	–	–	–	–	–	–	15.8	26
